Data as given in US10464964B2, “Galactoside inhibitor of galectins” (Galecto Biotech AB, priority 2015, dated 2019).
In brackets after ≈: the same amount, converted by molar mass. Read-outs that look alike come from different tables or passages of the source.

Legend:
galectin-3 = galectin-3 (Homo sapiens, UniProt P17931); assay: fluorescence anisotropy assay, inhibition of galectin / fluorescein tagged saccharide probe interaction
Solubility = assay type: physicochemical
Galectin 1 = Galectin 1 (Homo sapiens, UniProt P09382); assay: fluorescence anisotropy assay, inhibition of galectin / fluorescein tagged saccharide probe interaction
galectins = conditions: cited from earlier work
[1] = aqueous buffer, 0.1 M phosphate buffer pH 6.5, read-out: Solubility buffer
[2] = water, read-out: Solubility water

Chain of Galectin 1 (P09382 whole entry): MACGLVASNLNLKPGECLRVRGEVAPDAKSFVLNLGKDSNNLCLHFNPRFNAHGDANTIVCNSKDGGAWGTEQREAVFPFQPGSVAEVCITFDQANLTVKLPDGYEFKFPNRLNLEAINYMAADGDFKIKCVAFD
Chain of galectin-3 (P17931 whole entry): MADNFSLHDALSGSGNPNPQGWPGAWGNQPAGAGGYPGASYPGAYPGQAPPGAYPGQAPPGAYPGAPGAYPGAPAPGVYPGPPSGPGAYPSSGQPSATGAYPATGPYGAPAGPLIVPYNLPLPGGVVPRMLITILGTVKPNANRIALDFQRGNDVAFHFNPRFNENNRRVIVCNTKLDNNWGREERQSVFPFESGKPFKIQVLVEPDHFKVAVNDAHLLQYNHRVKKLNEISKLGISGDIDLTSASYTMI

Compound | Kd (galectin-3) [µM] | solubility (Solubility; [1]) [µg/mL] | solubility (Solubility; [2]) [µg/mL] | Kd (Galectin 1) [µM] | affinity, times lower than lactose (galectins; relative to lactose) | Kd (galectins; all galectins) [µM]
OCC1O[C@@H](SC2O[C@H](CO)C(O)C(n3cc(-c4ccc(F)cn4)nn3)[C@H]2O)C(O)C(n2cc(-c3ccc(F)cn3)nn2)[C@H]1O (stereo in doubt) [Example S4a, 3,3′-Dideoxy-3,3′-bis-[4-(5-fluoro-2-pyridin-2-yl)-1H-1,2,3-triazol-1-yl]-1,1′-sulfanediyl-di-β-D-galactopyranoside] | 0.01 | 2600 (≈ 4000 µM) | 4300 (≈ 6610 µM) | 0.021 | – | –
Cn1cncc1-c1cn(C2C(O)[C@H](SC3O[C@H](CO)C(O)C(n4cc(-c5cncn5C)nn4)[C@H]3O)OC(CO)[C@@H]2O)nn1 (stereo in doubt) [Example S4c, 3,3′-Dideoxy-3,3′-bis-[4-(1-methyl-1H-imidazol-5-yl)-1H-1,2,3-triazol-1-yl]-1,1′-sulfanediyl-di-β-D-galactopyranoside] | 0.131 | – | – | 0.6 | – | –
OCC1O[C@@H](SC2O[C@H](CO)C(O)C(n3cc(-c4ncc(C(F)(F)F)cc4Cl)nn3)[C@H]2O)C(O)C(n2cc(-c3ncc(C(F)(F)F)cc3Cl)nn2)[C@H]1O (stereo in doubt) [Example S4d, 3,3′-Dideoxy-3,3′-bis-[4-(3-chloro-5-trifluoromethyl-pyridin-2-yl)-1H-1,2,3-triazol-1-yl]-1,1′-sulfanediyl-di-β-D-galactopyranoside] | 0.025 | 200 (≈ 244 µM) | – | 0.74 | – | –
OCC1O[C@@H](SC2O[C@H](CO)C(O)C(n3cc(-c4ccccn4)nn3)[C@H]2O)C(O)C(n2cc(-c3ccccn3)nn2)[C@H]1O (stereo in doubt) [Example S4f, 3,3′-Dideoxy-3,3′-bis-[4-(pyridin-2-yl)-1H-1,2,3-triazol-1-yl]-1,1′-sulfanediyl-di-β-D-galactopyranoside] | 0.042 | 450 (≈ 732 µM) | – | 0.21 | – | –
OCC1O[C@@H](SC2O[C@H](CO)C(O)C(n3cc(-c4ccc(F)cn4)nn3)[C@H]2O)C(O)C(n2cc(-c3cc(F)c(F)c(F)c3)nn2)[C@H]1O (stereo in doubt) [Example S7, 3,3′-Dideoxy-3-[4-(5-fluoropyridin-2-yl)-1H-1,2,3-triazol-1-yl]-3′-[4-(3,4,5-trifluorophenyl)-1H-1,2,3-triazol-1-yl]-1,1′-sulfanediyl-di-β-D-galactopyranoside] | < 0.005 | – | – | 0.04 | – | –
OCC1O[C@@H](SC2O[C@H](CO)C(O)C(n3cc(-c4cccnc4)nn3)[C@H]2O)C(O)C(n2cc(-c3cc(F)c(F)c(F)c3)nn2)[C@H]1O (stereo in doubt) [Example S8a, 3,3′-3-[4-(pyridin-3-yl)-1H-1,2,3-triazol-1-yl]-3′-[4-(3,4,5-trifluorophenyl)-1H-1,2,3-triazol-1-yl]-1,1′-sulfanediyl-di-β-D-galactopyranoside] | 0.002 | 41 (≈ 61.4 µM) | – | 0.038 | – | –
OCC1O[C@@H](SC2O[C@H](CO)C(O)C(n3cc(-c4cncnc4)nn3)[C@H]2O)C(O)C(n2cc(-c3cc(F)c(F)c(F)c3)nn2)[C@H]1O (stereo in doubt) [Example S8b, 3,3′-Dideoxy-3-[4-(1,3-pyrimidin-5-yl)-1H-1,2,3-triazol-1-yl]-3′-[4-(3,4,5-trifluorophenyl)-1H-1,2,3-triazol-1-yl]-1,1′-sulfanediyl-di-β-D-galactopyranoside] | < 0.002 | 360 (≈ 538 µM) | – | 0.08 | – | –
OCC1O[C@@H](SC2O[C@H](CO)C(O)C(n3cc(-c4ncccn4)nn3)[C@H]2O)C(O)C(n2cc(-c3cc(F)c(F)c(F)c3)nn2)[C@H]1O (stereo in doubt) [Example S8c, 3,3′-Dideoxy-3-[4-(1,3-pyrimidin-2-yl)-1H-1,2,3-triazol-1-yl]-3′-[4-(3,4,5-trifluorophenyl)-1H-1,2,3-triazol-1-yl]-1,1′-sulfanediyl-di-β-D-galactopyranoside] | < 0.002 | 4600 (≈ 6880 µM) | – | 0.07 | – | –
OCC1O[C@@H](SC2O[C@H](CO)C(O)C(n3cc(-c4ccccn4)nn3)[C@H]2O)C(O)C(n2cc(-c3cc(F)c(F)c(F)c3)nn2)[C@H]1O (stereo in doubt) [Example S8d, 3,3′-Dideoxy-3-[4-(pyridin-2-yl)-1H-1,2,3-triazol-1-yl]-3′-[4-(3,4,5-trifluorophenyl)-1H-1,2,3-triazol-1-yl]-1,1′-sulfanediyl-di-β-D-galactopyranoside] | 0.001 | 1400 (≈ 2100 µM) | – | 0.038 | – | –
OCC1O[C@@H](SC2O[C@H](CO)C(O)C(n3cc(-c4ccncc4)nn3)[C@H]2O)C(O)C(n2cc(-c3cc(F)c(F)c(F)c3)nn2)[C@H]1O (stereo in doubt) [Example S8e, 3,3′-Dideoxy-3-[4-(pyridin-4-yl)-1H-1,2,3-triazol-1-yl]-3′-[4-(3,4,5-trifluorophenyl)-1H-1,2,3-triazol-1-yl]-1,1′-sulfanediyl-di-β-D-galactopyranoside] | 0.001 | 1300 (≈ 1950 µM) | – | 0.072 | – | –
CC(=O)Nc1ccc(-c2cn(C3C(O)[C@@H](CO)OC(S[C@@H]4OC(CO)[C@H](O)C(n5cc(-c6cc(F)c(F)c(F)c6)nn5)C4O)[C@@H]3O)nn2)cn1 (stereo in doubt) [Example S8f, 3-[4-((2-acetamid-N-yl)-pyridin-5-yl)-3,3′-dideoxy-1H-1,2,3-triazol-1-yl]-3′-[4-(3,4,5-trifluorophenyl)-1H-1,2,3-triazol-1-yl]-1,1′-sulfanediyl-di-β-D-galactopyranoside] | 0.005 | 770 (≈ 1060 µM) | – | 0.149 | – | –
Nc1ccc(-c2cn(C3C(O)[C@@H](CO)OC(S[C@@H]4OC(CO)[C@H](O)C(n5cc(-c6cc(F)c(F)c(F)c6)nn5)C4O)[C@@H]3O)nn2)cn1 (stereo in doubt) [Example S8g, 3-[4-(2-aminopyridin-5-yl)-3,3′-dideoxy-1H-1,2,3-triazol-1-yl]-3′-[4-(3,4,5-trifluorophenyl)-1H-1,2,3-triazol-1-yl]-1,1′-sulfanediyl-di-β-D-galactopyranoside] | < 0.002 | 1800 (≈ 2640 µM) | – | 0.034 | – | –
OCC1O[C@@H](SC2O[C@H](CO)C(O)C(n3cc(-c4ncc(F)cn4)nn3)[C@H]2O)C(O)C(n2cc(-c3cc(F)c(F)c(F)c3)nn2)[C@H]1O (stereo in doubt) [Example S8h, 3,3′-Dideoxy-3-[4-(5-fluoro-1,3-pyrimidin-2-yl)-1H-1,2,3-triazol-1-yl]-3′-[4-(3,4,5-trifluorophenyl)-1H-1,2,3-triazol-1-yl]-1,1′-sulfanediyl-di-β-D-galactopyranoside] | < 0.002 | 3300 (≈ 4810 µM) | – | 0.055 | – | –
O=C[C@H](O)[C@@H](O)[C@@H](O)[C@H](O)CO [D-galactose] | – | – | – | – | 50-100 times | –
COc1ccc(-c2cn(C3C(O)[C@@H](CO)OC(S[C@@H]4OC(CO)[C@H](O)[C@H](n5cc(-c6ccc(OC)nc6)nn5)C4O)[C@@H]3O)nn2)cn1 (stereo partly drawn) [Example S4b, 3,3′-Dideoxy-3,3′-bis-[4-(6-methoxypyridin-3-yl)-1H-1,2,3-triazol-1-yl]-1,1′-sulfanediyl-di-β-D-galactopyranoside] | 0.012 | – | – | 0.12 | – | –
OCC1O[C@@H](S[C@@H]2O[C@H](CO)C(O)C(n3cc(-c4cncnc4)nn3)[C@H]2O)C(O)[C@@H](n2cc(-c3cncnc3)nn2)[C@H]1O (stereo partly drawn) [Example S4e, 3,3′-Dideoxy-3,3′-bis-[4-(pyrimidin-5-yl)-1H-1,2,3-triazol-1-yl]-1,1′-sulfanediyl-di-β-D-galactopyranoside] | 0.044 | 7 (≈ 11.4 µM) | – | 0.39 | – | –
OCC1O[C@@H](SC2O[C@H](CO)C(O)C(n3cc(-c4cccc(F)c4)nn3)[C@H]2O)C(O)[C@@H](n2cc(-c3cccc(F)c3)nn2)[C@H]1O (stereo partly drawn) [Ref 1, 3,3′-bis-[4-(3-fluorophenyl)-1H-1,2,3-triazol-1-yl]-1,1′-sulfanediyl-di-β-D-galactopyranoside, reference compound] | – | – | 400 (≈ 617 µM) | – | – | –
OC[C@H]1O[C@@H](O[C@H]2[C@H](O)[C@@H](O)C(O)O[C@@H]2CO)[C@H](O)[C@@H](O)[C@H]1O (stereo partly shown) [lactose] | – | – | – | – | – | 500 to 1000
